Tests used:
[1] = Stability in presence of human DcpS assessed as complete degradation at 40 uM by HPLC-based assay; type: ADME
[2] = biological target: T1, Eukaryotic translation initiation factor 4E (Oryctolagus cuniculus, UniProt P29338); assay: Inhibition of eukaryotic initiation factor 4E in micrococcal nuclease-pretreated rabbit reticulocyte lysate assessed as inhibition of m7,3'-O-GpppG-capped 5'UTRbetaglob-LUC mRNA translation by luciferase-based luminometry
[3] = biological target: T1, Eukaryotic translation initiation factor 4E; assay: Inhibition of eukaryotic initiation factor 4E in micrococcal nuclease-pretreated rabbit reticulocyte lysate assessed as inhibition of m7,3'-O-GpppG-capped 5'UTRbetaglob-LUC mRNA translation treated 60 mins before mRNA addition by luciferase-based luminometry
[4] = biological target: Eukaryotic translation initiation factor 4E (Mus musculus) (UniProt P63073)
Description: Binding affinity to mouse eukaryotic initiation factor 4E expressed in Escherichia coli BL21(DE3) by fluorescence quenching titration method

[5] = biological target: T1, Eukaryotic translation initiation factor 4E; assay: Inhibition of eukaryotic initiation factor 4E in micrococcal nuclease-pretreated rabbit reticulocyte lysate assessed as inhibition of rabbit beta-[…] mRNA translation by [3H]leucine incorporation assay

T1 sequence (P29338 whole entry): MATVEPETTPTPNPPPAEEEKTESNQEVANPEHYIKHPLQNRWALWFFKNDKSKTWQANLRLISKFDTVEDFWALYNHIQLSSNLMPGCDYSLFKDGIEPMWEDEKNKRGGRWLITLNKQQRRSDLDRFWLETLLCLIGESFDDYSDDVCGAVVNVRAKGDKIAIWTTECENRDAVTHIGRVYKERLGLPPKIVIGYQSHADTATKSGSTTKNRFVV
Chain of Eukaryotic translation initiation factor 4E (Mus musculus) (P63073 whole entry): as the sequence (P29338 whole entry) above, with P12T counted along it

SMILES	Stability [1]	IC50 [2]	IC50 [3]	Ka [4]	IC50 [5]
C[n+]1cn([C@@H]2O[C@H](CO[P@](=O)(S)OP(=O)([O-])OP(=O)(O)O)[C@@H](O)[C@H]2O)c2nc(N)nc(O)c21	Stable	0.56 µM	0.56 µM	371 µM⁻¹	–
C[n+]1cn([C@@H]2O[C@H](COP(=O)([O-])OP(=O)(O)OP(=O)(O)O)[C@@H](O)[C@H]2O)c2nc(N)[nH]c(=O)c21	Unstable	–	–	–	–
C[n+]1cn([C@@H]2O[C@H](CO[P@@](=O)(S)OP(=O)([O-])OP(=O)(O)OC[C@H]3O[C@@H](n4cnc5c(=O)[nH]c(N)nc54)[C@H](O)[C@@H]3O)[C@@H](O)[C@H]2O)c2nc(N)nc(O)c21	Stable	3.8 µM	2.1 µM	10 µM⁻¹	12.1 µM
C[n+]1cn([C@@H]2O[C@H](COP(=O)(O)OP(=O)([O-])OP(=O)(O)OC[C@H]3O[C@@H](n4cnc5c(=O)[nH]c(N)nc54)[C@H](O)[C@@H]3O)[C@@H](O)[C@H]2O)c2nc(N)[nH]c(=O)c21	Unstable	8.3 µM	< 20 µM	–	17.1 µM
C[n+]1cn([C@@H]2O[C@H](COP(=O)(O)OP(=O)([O-])OP(=O)(O)OC[C@H]3O[C@@H](n4cnc5c(=O)[nH]c(N)nc54)[C@H](O)[C@@H]3O)[C@@H](O)[C@H]2O)c2nc(N)nc(O)c21	–	–	–	9.4 µM⁻¹	–
C[n+]1cn([C@@H]2O[C@H](CO[P@@](=O)(S)OP(=O)(O)OP(=O)([O-])O)[C@@H](O)[C@H]2O)c2c1C(O)NC(N)=N2 (stereo not given in full)	–	–	–	190 µM⁻¹	–
C[n+]1cn([C@@H]2O[C@H](CO[P@](=O)(S)OP(=O)(O)OP(=O)(O)OC[C@H]3O[C@@H](n4cnc5c(=O)[nH]c(N)nc54)[C@H](O)[C@@H]3O)[C@@H](O)[C@H]2O)c2nc(N)[n-]c(=O)c21	Stable	1.1 µM	1.2 µM	–	4.1 µM

Reference: ChEMBL document CHEMBL1151839, “Phosphorothioate analogs of m7GTP are enzymatically stable inhibitors of cap-dependent translation” (Bioorg Med Chem Lett, 2009)
